From US8541442B2, “Indole derivatives as anticancer agents” (Janssen Pharmaceutica N.V., priority 2009, dated 2013)

Tests used:
[1] = system: colorectal cancer cell line HCT116; experiment: Alamar Blue cell proliferation assay, HCT116; assay type: cell-based; conditions: for HCT116 cell proliferation inhibition pIC50: HCT116 cells; for IC50: Homo sapiens, HCT-116, HCT116 cells, read-out: HCT116 cell proliferation inhibition pIC50 (converted)
Method: For experiments in 384 wells plates the cells were seeded at a density of 5×10^3 cells/ml in Falcon 384-well culture plates (Life Technologies, Merelbeke, Belgium), black with clear bottom, in 45 μl culture medium. Cells were allowed to adhere to plastic for 24 hr. The tested compound was pre-diluted (1/50 in culture medium) and 5 μl pre-diluted compound was added to the wells. Following 4-day incubation, 10 μl of the Alamar Blue solution was added to each well and the cells were further incubated for 5 hrs (A2780) at 37° C. The fluorescence intensity was measured for each well with a Fluorescence plate reader (Fluorskan, Labsystems, 540 nm excitation and 590 nm emission)
The antiproliferative activity was calculated as percentage of remaining viable cells in treated versus control (untreated cells) conditions. Within an experiment, the result for each experimental condition is the mean of 3 replicate wells. When appropriate, the experiments were repeated to establish full concentration-response curves. When appropriate, IC50-values (concentration of the drug, needed to reduce cell growth to 50% of the control) were computed using probit analysis for graded data (Finney, D. J., Probit Analyses, 2nd Ed. Chapter 10, Graded Responses, Cambridge University Press, Cambridge 1962). Herein the effects of test compounds are expressed as pIC50 (the negative log value of the IC50-value (M)) (see Table 5A).
Compounds were also tested according to the above protocol but using other cell lines: colorectal cancer cell line HCT116, non-small cell lung cancer cell line H1299, human prostate cancer cell line DU145.

Male NMRI mice = experiment: Ro-4-1284 antagonism in mice; assay type: in vivo
Method: The test is a modification of a procedure described by Colpaert et al. (1975).^3 Male NMRI mice (22±3 g) were housed in macrolon observation cages (L×W×H: 11×12×17 cm; n=3 per cage). At the start of the experiments immediately before test compound administration, the initial body temperature of the mice was measured with a precision of 0.1° C. by inserting the thermo-sensitive probe (1.0 mm diameter) of an electric thermometer (Comark) to a constant depth of 3 cm into the esophagus until a stable reading was obtained. The right eye pupil diameter was measured with a graduated microscope and expressed in 1/24 mm units. Fifteen min after test compound administration, the mice were challenged with Ro-4-1284 (10 mg/kg, s.c.). Ro-4-1284 is a reserpine-like vesicular monoamine transport (VMAT-2) inhibitor, which rapidly depletes secretory vesicles.^3,4 Fifteen, 30 and 60 min after challenge, the mice were scored for palpebral opening (0, 1, 2, 3, 4, 5) and locomotor activity (−1, 0, 1, 2, 3). At the 60-min interval, immediately after the scoring of overt behavior, the right eye pupil diameter and the esophageal temperature were measured again. Abnormal phenomena such as intensive sniffing, chewing, rearing, hyperemia, piloerection, salivation, tremors, convulsions and death were noted (the latter phenomena were also noted when occurring before Ro-4-1284 administration). Criteria for drug-induced effects: reversal of ptosis: palpebral opening score >1 at 15, 30 or 60 min (2.7, 0.5 and 0% false positive controls, respectively; n>350); induction of prostration: score −1 for locomotion at 15, 30 or 60 min (never observed in controls); reversal of hypomotility: score >0 for locomotion at 15, 30 and 60 min (2.2, 0.8 and 0% false positive controls, respectively); reversal of miosis: pupil diameter >5 units at 60 min (0.8% false positives); potentiation of hypothermia: temperature decrease (over the 1-h time interval)>9.0° C. (1.4% false positives); reversal of hypothermia: temperature decrease <3.0° C. (1.8% false positives).
According to the standard procedure, R0-4-1284 is injected 15 min following subcutaneous or oral administration and observations start 15 min later. Doses are initially given to 3 animals. When at least 2 out of the 3 animals show activity for at least one of the observations, the compound is considered active.

[2] = 80 mg/kg oral administration, 3 animals

| Compound | HCT116 cell proliferation inhibition pIC50 [1] | IC50 [1] [nM] | activity on reversal of hypomotility (Male NMRI mice; [2]) | activity on reversal of miosis (Male NMRI mice; [2]) | activity on reversal of ptosis (Male NMRI mice; [2]) | further results |
| --- | --- | --- | --- | --- | --- | --- |
| Cc1cc(Nc2ccnc3c2CCC3O)ccc1NCCc1c[nH]c2c(C(C)O)cccc12 (single isomer, unassigned) [Compound 12] | 6.06 | – | – | – | – | – |
| Cc1cc(Nc2ccnc3c2CCC3O)ccc1NCCc1c[nH]c2c(C(C)O)cccc12 (single isomer, unassigned) [Compound 15] | 6.69 | – | – | – | – | – |
| Cc1cc(Nc2ccnc3c2CCC3O)ccc1NCCc1c[nH]c2c(CCO)cccc12 (single isomer, unassigned) [Compound 23] | 5.53 | – | – | – | – | – |
| COC1CCc2c(Nc3ccc(NCCc4c[nH]c5c(C(C)(C)O)cccc45)cc3)ccnc21 (single isomer, unassigned) [Compound 24] | – | 38 | did not show activity | did not show activity | did not show activity | – |
| COC1CCc2c(Nc3ccc(NCCc4c[nH]c5c(C(C)(C)O)cccc45)cc3)ccnc21 (single isomer, unassigned) [Compound 25] | – | – | did not show activity | did not show activity | did not show activity | – |
| Cc1cc(Nc2ccnc3c2CCC3(C)O)ccc1NCCc1c[nH]c2c(C(C)(C)O)cccc12 (single isomer, unassigned) [Compound 26] | 7.26 | – | did not show activity | did not show activity | did not show activity | – |
| Cc1cc(Nc2ccnc3c2CCC3(C)O)ccc1NCCc1c[nH]c2c(C(C)(C)O)cccc12 (single isomer, unassigned) [Compound 27] | – | 83.2 | did not show activity | did not show activity | did not show activity | – |
| COC1CCc2c(Nc3ccc(NCCc4c[nH]c5c(C(C)(C)O)cccc45)c(C)c3)ccnc21 (single isomer, unassigned) [Compound 28] | 7.11 | – | did not show activity | did not show activity | did not show activity | – |
| COC1CCc2c(Nc3ccc(NCCc4c[nH]c5c(C(C)(C)O)cccc45)c(C)c3)ccnc21 (single isomer, unassigned) [Compound 29] | 7.37 | – | did not show activity | did not show activity | did not show activity | – |
| CC(C)(O)c1cccc2c(CCNc3ccc(Nc4ccnc5c4CCC5(C)O)cc3)c[nH]c12 (single isomer, unassigned) [Compound 30] | 7.19 | – | did not show activity | did not show activity | did not show activity | – |
| CC(C)(O)c1cccc2c(CCNc3ccc(Nc4ccnc5c4CCC5(C)O)cc3)c[nH]c12 (single isomer, unassigned) [Compound 31] | 6.94 | – | did not show activity | did not show activity | did not show activity | – |
| Cc1cc(Nc2ccnc3c2CCC3(C)O)ccc1NCCc1c[nH]c2c(C(C)(C)O)cccc12 (centres unmarked) [Compound 1] | – | 151 | did not show activity | did not show activity | did not show activity | – |
| Cc1cc(Nc2ccnc3c2CCC3=O)ccc1NCCc1c[nH]c2c(C(C)O)cccc12 (centres unmarked) [Compound 4] | – | 1000 | – | – | – | activity on reversal of hypomotility (Male NMRI mice; 40 mg/kg): did not show activity; activity on reversal of miosis (Male NMRI mice; 40 mg/kg): did not show activity; activity on reversal of ptosis (Male NMRI mice; 40 mg/kg): did not show activity |
| Cc1cc(Nc2ccnc(CO)c2)ccc1NCCc1c[nH]c2c(C(C)O)cccc12 (centres unmarked) [Compound 5] | – | 347 | – | – | – | – |
| OCc1cccc2c(CCNc3ccc(Nc4ccnc5c4CCC5O)cc3)c[nH]c12 (centres unmarked) [Compound 6] | – | 4070 | – | – | – | – |
| C=C(C)c1cccc2c(CCNc3ccc(Nc4ccnc5c4CCC5OC)cc3)c[nH]c12 (centres unmarked) [Compound 7] | – | 100 | did not show activity | did not show activity | did not show activity | – |
| Cc1cc(Nc2ccnc3c2CCC3O)ccc1NCCc1c[nH]c2c(CCC(C)O)cccc12 (centres unmarked) [Compound 9] | – | 955 | – | – | – | – |
| Cc1cc(Nc2ccnc3c2CCC3(C)O)ccc1NCCc1c[nH]c2c(C(C)O)cccc12 (centres unmarked) [Compound 10] | 6.47 | – | – | – | – | – |
| COc1cc(Nc2ccnc3c2CCC3O)ccc1NCCc1c[nH]c2c(C(C)(C)O)cccc12 (centres unmarked) [Compound 11] | 6.67 | – | – | – | – | – |
| COC1CCc2c(Nc3ccc(NCCc4c[nH]c5c(C(C)O)cccc45)c(C)c3)ccnc21 (centres unmarked) [Compound 16] | 6.68 | – | – | – | – | – |
| Cc1cc(Nc2ccnc3c2CCC3O)ccc1NCCc1c[nH]c2c(C(C)(C)O)cccc12 (centres unmarked) [Compound 18] | – | 53.7 | did not show activity | did not show activity | did not show activity | – |
| Cc1cc(Nc2ccnc3c2CCC3O)ccc1NCCc1c[nH]c2c(C(C)(C)O)cccc12 (centres unmarked) [Compound 20] | – | – | did not show activity | did not show activity | did not show activity | – |
